Assay results: ChEMBL document CHEMBL5154826, “Discovery of the Clinical Candidate MAK683: An EED-Directed, Allosteric, and Selective PRC2 Inhibitor for the Treatment of Advanced Malignancies” (J Med Chem, 2022)
In brackets after ≈: the same amount, converted by molar mass.

Experiments:
[1] = Volume of distribution at steady state in Sprague-Dawley rat at 2 mg/kg, po or 1 mg/kg, iv after 1 week by LC-MS/MS analysis; assay type: ADME, organism-based; conditions: in vivo, 168 h, time 1 weeks
[2] = Oral biovailability in Beagle dog at 2 mg/kg, po; assay type: ADME, organism-based, Canis lupus familiaris; conditions: in vivo
[3] = Dose normalized AUC in ICR (CD-1) mouse at 2 mg/kg, po or 1 mg/kg, iv after 1 week by LC-MS/MS analysis; assay type: ADME, organism-based; conditions: in vivo, 168 h, time 1 weeks
[4] = Terminal half life in wild type Beagle dog at 2 mg/kg, po or 1 mg/kg, iv after 1 week by LC-MS/MS analysis; assay type: ADME, organism-based, Canis lupus familiaris; conditions: in vivo, time 1 weeks, read-out: beta t1/2 (converted)
[5] = Plasma clearance in rat; assay type: ADME, cell-free
[6] = Oral bioavailability in Sprague-Dawley rat at 2 mg/kg; assay type: ADME, organism-based; conditions: in vivo
[7] = Dose normalized Cmax in ICR (CD-1) mouse at 2 mg/kg, po or 1 mg/kg, iv after 1 week by LC-MS/MS analysis; assay type: ADME, organism-based; conditions: in vivo, 168 h, time 1 weeks
[8] = Intrinsic clearance in dog hepatocytes measured per 10^6 cells; assay type: ADME, cell-based, Canis lupus familiaris, Hepatocyte; conditions: read-out: CLH
[9] = Volume of distribution at steady state in wild type Beagle dog at 2 mg/kg, po or 1 mg/kg, iv after 1 week by LC-MS/MS analysis; assay type: ADME, organism-based, Canis lupus familiaris; conditions: in vivo, 168 h, time 1 weeks
[10] = Oral biovailability in ICR (CD-1) mouse at 2 mg/kg, po; assay type: ADME, organism-based; conditions: in vivo
[11] = Intrinsic clearance in mouse hepatocytes measured per 10^6 cells; assay type: ADME, cell-based, Hepatocyte; conditions: read-out: CLH
[12] = Dose normalized AUC in Sprague-Dawley rat at 2 mg/kg, po or 1 mg/kg, iv after 1 week by LC-MS/MS analysis; assay type: ADME, organism-based; conditions: in vivo, 168 h, time 1 weeks
[13] = Dissociation constant, pKa of compound; assay type: physicochemical
[14] = Intrinsic clearance in rat hepatocytes measured per 10^6 cells; assay type: ADME, cell-based, Hepatocyte; conditions: read-out: CLH
[15] = High throughput solubility of the compound in FaSSIF after 16 to 24 hrs by MS/MS analysis; assay type: physicochemical; conditions: time 16-24 hrs
[16] = High throughput solubility of the compound in FeSSIF after 16 to 24 hrs by MS/MS analysis; assay type: physicochemical; conditions: time 16-24 hrs
[17] = Volume of distribution at steady state ICR (CD-1) mouse at 2 mg/kg, po or 1 mg/kg, iv after 1 week by LC-MS/MS analysis; assay type: ADME, organism-based; conditions: in vivo, 168 h, time 1 weeks
[18] = Permeability across basolateral to apical side in human Caco-2 cells incubated for 2 hrs by LC/MS/MS analysis; assay type: ADME, cell-based; conditions: read-out: permeability
[19] = Antitumor activity against human Karpas-422 cells xenografted Athymic BALB/c nude mouse assessed as minimum effective dose administered twice a day for 30 days; assay type: functional; conditions: KARPAS-422, 720 h, time 30 day, read-out: MED
[20] = target: T1, Alpha-2C adrenergic receptor (Homo sapiens, UniProt P18825); assay: Inhibition of alpha2c adrenergic receptor (unknown origin)
T1 sequence (P18825 whole entry): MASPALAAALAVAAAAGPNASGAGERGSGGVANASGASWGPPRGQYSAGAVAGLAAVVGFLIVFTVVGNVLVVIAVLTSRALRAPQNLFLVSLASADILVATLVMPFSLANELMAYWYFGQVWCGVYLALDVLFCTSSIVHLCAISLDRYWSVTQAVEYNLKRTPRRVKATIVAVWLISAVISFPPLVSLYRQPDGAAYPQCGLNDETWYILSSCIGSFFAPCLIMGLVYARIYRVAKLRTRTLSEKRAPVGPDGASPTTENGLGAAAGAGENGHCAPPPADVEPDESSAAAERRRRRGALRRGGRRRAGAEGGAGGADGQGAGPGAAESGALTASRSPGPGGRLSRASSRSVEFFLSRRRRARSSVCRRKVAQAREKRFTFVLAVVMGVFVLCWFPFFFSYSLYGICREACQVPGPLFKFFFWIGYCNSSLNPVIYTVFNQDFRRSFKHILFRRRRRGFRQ

[21] = Metabolic stability in human microsomes assessed as intrinsic clearance; assay type: ADME, Microsome; conditions: read-out: CLH
[22] = Permeability across apical to basolateral side in human Caco-2 cells at 10 uM incubated for 2 hrs by LC/MS/MS analysis; assay type: ADME, cell-based; conditions: Caco-2, read-out: permeability
[23] = Plasma protein binding in mouse at 1 uM measured after 6 hrs LC-MS/MS analysis; assay type: ADME, cell-free; conditions: read-out: PPB (converted)
[24] = Plasma clearance in dog; assay type: ADME, cell-free, Canis lupus familiaris
[25] = Plasma protein binding in dog at 1 uM measured after 6 hrs LC-MS/MS analysis; assay type: ADME, cell-free, Canis lupus familiaris; conditions: read-out: PPB (converted)
[26] = Metabolic stability in rat microsomes assessed as intrinsic clearance; assay type: ADME, Microsome; conditions: read-out: CLH
Cytochrome P450 2C9 = Cytochrome P450 2C9 (Homo sapiens, UniProt P11712); assay: Inhibition of CYP2C9 in human liver microsomes using diclofenac as substrate incubated for 10 mins in presence of NADPH by LC-MS/MS analysis; assay type: ADME, Microsome
Sequence of Cytochrome P450 2C9 (P11712 whole entry): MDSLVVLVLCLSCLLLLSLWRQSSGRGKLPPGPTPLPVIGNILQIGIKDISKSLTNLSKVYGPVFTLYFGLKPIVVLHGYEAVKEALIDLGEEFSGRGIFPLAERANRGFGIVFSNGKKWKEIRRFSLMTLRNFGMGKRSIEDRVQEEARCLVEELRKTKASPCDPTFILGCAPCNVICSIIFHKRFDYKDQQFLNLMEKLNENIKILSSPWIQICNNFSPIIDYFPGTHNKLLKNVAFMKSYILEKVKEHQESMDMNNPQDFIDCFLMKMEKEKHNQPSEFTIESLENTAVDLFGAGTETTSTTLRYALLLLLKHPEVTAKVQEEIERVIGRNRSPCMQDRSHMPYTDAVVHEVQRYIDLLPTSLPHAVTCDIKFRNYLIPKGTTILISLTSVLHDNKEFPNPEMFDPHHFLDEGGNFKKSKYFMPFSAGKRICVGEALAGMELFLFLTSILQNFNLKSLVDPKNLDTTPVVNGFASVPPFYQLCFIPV

[27] = Terminal half life in Sprague-Dawley rat at 2 mg/kg, po or 1 mg/kg, iv after 1 week by LC-MS/MS analysis; assay type: ADME, organism-based; conditions: in vivo, time 1 weeks, read-out: beta t1/2 (converted)
[28] = Metabolic stability in dog microsomes assessed as intrinsic clearance; assay type: ADME, Canis lupus familiaris, Microsome; conditions: read-out: CLH
[29] = Dose normalized Cmax in wild type Beagle dog at 2 mg/kg, po or 1 mg/kg, iv after 1 week by LC-MS/MS analysis; assay type: ADME, organism-based, Canis lupus familiaris; conditions: in vivo, 168 h, time 1 weeks
[30] = Dose normalized AUC in wild type Beagle dog at 2 mg/kg, po or 1 mg/kg, iv after 1 week by LC-MS/MS analysis; assay type: ADME, organism-based, Canis lupus familiaris; conditions: in vivo, 168 h, time 1 weeks
[31] = Dose normalized Cmax in Sprague-Dawley rat at 2 mg/kg, po or 1 mg/kg, iv after 1 week by LC-MS/MS analysis; assay type: ADME, organism-based; conditions: in vivo, 168 h, time 1 weeks
[32] = Metabolic stability in mouse microsomes assessed as intrinsic clearance; assay type: ADME, Microsome; conditions: read-out: CLH
Cytochrome P450 2D6 = Cytochrome P450 2D6 (Homo sapiens, UniProt P10635); assay: Inhibition of CYP2D6 in human liver microsomes using bufuralol as substrate incubated for 10 mins in presence of NADPH by LC-MS/MS analysis; assay type: ADME, Microsome
Sequence of Cytochrome P450 2D6 (P10635 whole entry): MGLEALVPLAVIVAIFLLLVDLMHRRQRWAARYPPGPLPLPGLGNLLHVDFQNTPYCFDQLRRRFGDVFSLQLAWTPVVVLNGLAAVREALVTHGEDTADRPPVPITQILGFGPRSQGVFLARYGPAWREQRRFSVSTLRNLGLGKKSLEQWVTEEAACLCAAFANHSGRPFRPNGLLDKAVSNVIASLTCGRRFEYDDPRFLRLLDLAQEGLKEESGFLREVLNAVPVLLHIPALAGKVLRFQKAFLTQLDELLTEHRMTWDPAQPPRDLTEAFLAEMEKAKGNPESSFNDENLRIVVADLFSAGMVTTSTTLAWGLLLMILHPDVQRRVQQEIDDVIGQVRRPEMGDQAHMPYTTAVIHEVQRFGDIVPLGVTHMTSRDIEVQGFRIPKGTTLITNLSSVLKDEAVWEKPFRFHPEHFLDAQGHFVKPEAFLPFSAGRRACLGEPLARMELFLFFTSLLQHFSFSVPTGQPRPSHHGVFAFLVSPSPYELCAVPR

[33] = Intrinsic clearance in human hepatocytes measured per 10^6 cells; assay type: ADME, cell-based, Hepatocyte; conditions: read-out: CLH
[34] = Plasma protein binding in human at 1 uM measured after 6 hrs LC-MS/MS analysis; assay type: ADME, cell-free; conditions: read-out: PPB (converted)
[35] = High throughput solubility of the compound at pH 7 after 16 to 24 hrs by MS/MS analysis; assay type: physicochemical; conditions: buffer, time 16-24 hrs, read-out: solubility
KARPAS-422 = assay: Antiproliferative activity against human KARPAS-422 cells expressing EZH2 mutant assessed as inhibition of cell growth after 14 days by beckman coulter counting method; assay type: functional; conditions: time 14 day
[36] = Plasma protein binding in rat at 1 uM measured after 6 hrs LC-MS/MS analysis; assay type: ADME, cell-free; conditions: read-out: PPB (converted)
[37] = Terminal half life in ICR (CD-1) mouse at 2 mg/kg, po or 1 mg/kg, iv after 1 week by LC-MS/MS analysis; assay type: ADME, organism-based; conditions: in vivo, time 1 weeks, read-out: beta t1/2 (converted)
[38] = High throughput solubility of the compound in SGF after 16 to 24 hrs by MS/MS analysis; assay type: physicochemical; conditions: time 16-24 hrs
[39] = Plasma protein binding in human assessed as unbound fraction at 1 uM measured after 6 hrs LC-MS/MS analysis; assay type: ADME, cell-free
[40] = High throughput solubility of the compound at pH 1 after 16 to 24 hrs by MS/MS analysis; assay type: physicochemical; conditions: buffer, time 16-24 hrs
[41] = Lipophilicity, logD of the compound at pH 7.4 by LC with tandem MS analysis; assay type: physicochemical; conditions: buffer, read-out: logD
Cytochrome P450 3A4 = Cytochrome P450 3A4 (Homo sapiens, UniProt P08684); assay: Inhibition of CYP3A4 in human liver microsomes using midazolam as substrate incubated for 10 mins in presence of NADPH by LC-MS/MS analysis; assay type: ADME, Microsome
Sequence of Cytochrome P450 3A4 (P08684 whole entry): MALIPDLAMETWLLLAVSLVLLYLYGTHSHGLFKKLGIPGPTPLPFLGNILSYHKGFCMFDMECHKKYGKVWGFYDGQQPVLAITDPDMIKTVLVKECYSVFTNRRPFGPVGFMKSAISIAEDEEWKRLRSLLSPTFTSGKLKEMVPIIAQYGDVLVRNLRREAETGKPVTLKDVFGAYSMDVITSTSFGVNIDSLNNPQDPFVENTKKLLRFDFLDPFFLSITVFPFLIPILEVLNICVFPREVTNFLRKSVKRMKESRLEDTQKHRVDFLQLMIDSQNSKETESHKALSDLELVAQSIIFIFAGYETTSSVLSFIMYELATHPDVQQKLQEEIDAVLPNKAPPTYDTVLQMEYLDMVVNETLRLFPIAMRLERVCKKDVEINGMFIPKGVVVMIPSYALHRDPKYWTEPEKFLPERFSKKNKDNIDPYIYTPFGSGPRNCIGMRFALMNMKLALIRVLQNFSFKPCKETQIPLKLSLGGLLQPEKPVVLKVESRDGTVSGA

[42] = Free plasma concentration in Athymic BALB/c nude mouse xenografted with human Karpas-422 cells at 20 mg/kg, po after 12 hrs by HPLC-MS/MS analysis; assay type: ADME, organism-based; conditions: in vivo

Vdss [1]: 2.4 L/kg
bioavailability [2]: 68%
AUC/dose [3]: 1032 nM·h
half-life [4]: 2 h
clearance [5]: 22 mL/min/kg
bioavailability [6]: 109%
Cmax/dose [7]: 288 nM
hepatocyte CLint [8]: < 2.3 µL/min/1e6 cells
Vdss [9]: 2.1 L/kg
bioavailability [10]: 132%
hepatocyte CLint [11]: 3.6 µL/min/1e6 cells
AUC/dose [12]: 2127 nM·h
pKa [13]: 3.3
hepatocyte CLint [14]: 3.2 µL/min/1e6 cells
solubility [15]: 34 µM (≈ 12.9 µg/mL)
solubility [16]: 86 µM (≈ 32.5 µg/mL)
Vdss [17]: 7.5 L/kg
Papp B→A at 2 h [18]: 42 ×10⁻⁶ cm/s
IC50 [20]: 8.7 µM
microsomal CLint [21]: 9 µL/min/mg
Papp A→B at 2 h, 10 µM [22]: 7.2 ×10⁻⁶ cm/s
fraction unbound at 6 h, 1 µM [23]: 0.12
clearance [24]: 13 mL/min/kg
fraction unbound at 6 h, 1 µM [25]: 0.15
microsomal CLint [26]: 11 µL/min/mg
IC50 (Cytochrome P450 2C9): > 20 µM
half-life [27]: 1.1 h
microsomal CLint [28]: 10 µL/min/mg
Cmax/dose [29]: 590 nM
AUC/dose [30]: 2392 nM·h
Cmax/dose [31]: 387 nM
microsomal CLint [32]: 21 µL/min/mg
IC50 (Cytochrome P450 2D6): > 20 µM
hepatocyte CLint [33]: < 2.3 µL/min/1e6 cells
fraction unbound at 6 h, 1 µM [34]: 0.13
solubility [35]: 2.6 µM (≈ 0.984 µg/mL)
GI50 (KARPAS-422; Homo sapiens, KARPAS-422, 336 h): 6.7 µM
GI90 (KARPAS-422): 32 µM
fraction unbound at 6 h, 1 µM [36]: 0.1
half-life [37]: 2.2 h
solubility [38]: 173 µM (≈ 65.5 µg/mL)
fraction unbound at 6 h, 1 µM [39]: 0.13
solubility [40]: > 13000 µM
logD [41]: 3.8
IC50 (Cytochrome P450 3A4): > 20 µM
Cp(f) [42]: 32 nM
SMILES: COc1cccc(F)c1CNc1ccc(-c2cnc(C)nc2C)c2nncn12
minimal effective dose [19]: 7 mg/kg
